15 compounds from ChEMBL document CHEMBL5257024, “Synthesis of α,β-Unsaturated Carbonyl-Based Compounds, Oxime and Oxime Ether Analogs as Potential Anticancer Agents for Overcoming Cancer Multidrug Resistance by Modulation of Efflux Pumps in Tumor Cells” (J Med Chem, 2016) can be followed below.

The subject of data set [1] is MCF7. The data set is described as follows: Antiproliferative activity against human MCF7 cells assessed as inhibition of cell growth incubated for 48 hrs by propidium iodide staining based fluorometer assay. The format is functional. To be noted: MCF7, 48 h.
The subject of data set [2] is A549. Nature of the data set: Antiproliferative activity against human A549 cells assessed as inhibition of cell growth incubated for 48 hrs by propidium iodide staining based fluorometer assay. The format is functional. To be noted: A549, 48 h.
For data set [3], the species on record is Sus scrofa. Nature of the data set: Induction of pig brain microtubule stabilization at 25 uM measured after 15 mins by fluorescence based turbidimetry. The format is tissue-based.
Data set [4] concerns HT-29. The data set is described as follows: cells. The note with it: Homo sapiens, HT-29, 48 h.
Description: Antiproliferative activity against human HT-29 cells assessed as inhibition of cell growth incubated for 48 hrs by propidium iodide staining based fluorometer assay
Data set [5] has as its system PC-3. Nature of the data set: cells. The note with it: Homo sapiens, PC-3, 48 h.
Description: Antiproliferative activity against human PC-3 cells assessed as inhibition of cell growth incubated for 48 hrs by propidium iodide staining based fluorometer assay
Data set [6] can be described thus: Cytotoxicity against human MCF-10A cells assessed as cell viability incubated for 96 hrs by MTT assay. The format is toxicity, cell-based. Also noted: concentration or dose not given beside the values. The note with it: read-out: Activity.
The subject of data set [7] is MIA PaCa-2. Nature of the data set: Antiproliferative activity against human MIA PaCa-2 cells assessed as inhibition of cell growth incubated for 48 hrs by propidium iodide staining based fluorometer assay. The note with it: MIA PaCa-2, 48 h. The format is functional.
The test system of data set [8] is PANC-1. Nature of the data set: cells. The note with it: Homo sapiens, PANC-1, 48 h.
Description: Antiproliferative activity against human PANC-1 cells assessed as inhibition of cell growth incubated for 48 hrs by propidium iodide staining based fluorometer assay
In data set [9] the test system is NCI-H460. Nature of the data set: cells. The note with it: Homo sapiens, NCI-H460, 48 h.
Description: Antiproliferative activity against human NCI-H460 cells assessed as inhibition of cell growth incubated for 48 hrs by propidium iodide staining based fluorometer assay
The test system of data set [10] is L5178Y. Nature of the data set: Reversal of multidrug resistance in mouse L5178Y cells transfected with human MDR1 assessed as reversal of rhodamine 123 accumulation at 50 ug/ml incubated for 30 mins by flow cytometry. The format is functional, cell-based. The note with it: dose 50.0 µg/ml.
Data set [11] can be described thus: Inhibition of full length mouse GST-tagged BRAF V600E mutant preincubated for 60 mins followed by addition of N-terminal His-tagged full length human MEK1 incubated for 25 mins in presence of ATP by ELISA assay. On the technique in general: In an ELISA, binding on a coated surface is turned into a signal by an enzyme label.
Data set [12] can be described thus: Toxicity in mouse L5178Y cells transfected with human MDR1 at 50 ug/ml after short period of incubation by tryptan blue assay. The format is cell-based. To be noted: dose 50 µg/ml.
Data set [13] deals with Tubulin (Sus scrofa) (UniProt P02554+P02550). Nature of the data set: Inhibition of pig brain tubulin polymerization at 25 uM measured after 15 mins by fluorescence based turbidimetry. The format is tissue-based.
Data set [14] has as its target Epidermal growth factor receptor (Homo sapiens, UniProt P00533). The data set is described as follows: Inhibition of recombinant 6His-tagged EGFR cytoplasmic domain (645 to 1186 residues) (unknown origin) autophosphorylation expressed in baculovirus infected Sf9 insect cells preincubated for 10 mins followed by ATP and MgCl2 addition measured after 60 mins by DELFIA/time-resolved fluorometric analysis.

For data set [15], the system named is L5178Y. Nature of the data set: Reversal of multidrug resistance in mouse L5178Y cells transfected with human MDR1 assessed as reversal of rhodamine 123 accumulation at 5 ug/ml incubated for 30 mins by flow cytometry. The format is functional, cell-based. The note with it: dose 5.0 µg/ml.

Active and inactive are the calls of the source. No cut-off for these calls is given here.

Tubulin (Sus scrofa), sequence (P02550 whole entry, looked up, the tested form may be a part): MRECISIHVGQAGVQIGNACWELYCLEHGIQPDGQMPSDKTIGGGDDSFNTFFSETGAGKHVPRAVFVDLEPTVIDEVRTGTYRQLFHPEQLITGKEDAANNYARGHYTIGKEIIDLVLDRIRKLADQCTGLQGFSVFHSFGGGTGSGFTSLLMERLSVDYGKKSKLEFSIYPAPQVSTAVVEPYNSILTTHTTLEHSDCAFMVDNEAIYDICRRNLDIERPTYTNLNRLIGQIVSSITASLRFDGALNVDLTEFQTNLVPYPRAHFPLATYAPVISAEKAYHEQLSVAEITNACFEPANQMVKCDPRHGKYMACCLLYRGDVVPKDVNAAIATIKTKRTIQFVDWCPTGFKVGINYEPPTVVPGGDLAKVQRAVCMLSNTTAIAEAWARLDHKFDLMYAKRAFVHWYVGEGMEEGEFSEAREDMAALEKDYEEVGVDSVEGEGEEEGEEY
Tubulin (Sus scrofa), sequence (P02554 whole entry, looked up, the tested form may be a part): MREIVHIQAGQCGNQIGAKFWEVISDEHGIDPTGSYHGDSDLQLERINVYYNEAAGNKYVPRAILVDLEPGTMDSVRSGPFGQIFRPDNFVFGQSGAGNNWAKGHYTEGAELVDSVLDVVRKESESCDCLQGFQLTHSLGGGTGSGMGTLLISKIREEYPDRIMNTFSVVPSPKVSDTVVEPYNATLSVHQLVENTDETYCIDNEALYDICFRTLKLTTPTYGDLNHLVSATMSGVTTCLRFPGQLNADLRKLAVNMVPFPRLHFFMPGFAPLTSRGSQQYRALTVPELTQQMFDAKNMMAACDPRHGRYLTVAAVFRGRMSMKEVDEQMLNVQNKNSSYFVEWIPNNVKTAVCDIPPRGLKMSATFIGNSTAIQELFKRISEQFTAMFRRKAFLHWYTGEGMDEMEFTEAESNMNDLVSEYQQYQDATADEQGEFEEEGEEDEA
Epidermal growth factor receptor, sequence (P00533 whole entry, the tested form may be a part): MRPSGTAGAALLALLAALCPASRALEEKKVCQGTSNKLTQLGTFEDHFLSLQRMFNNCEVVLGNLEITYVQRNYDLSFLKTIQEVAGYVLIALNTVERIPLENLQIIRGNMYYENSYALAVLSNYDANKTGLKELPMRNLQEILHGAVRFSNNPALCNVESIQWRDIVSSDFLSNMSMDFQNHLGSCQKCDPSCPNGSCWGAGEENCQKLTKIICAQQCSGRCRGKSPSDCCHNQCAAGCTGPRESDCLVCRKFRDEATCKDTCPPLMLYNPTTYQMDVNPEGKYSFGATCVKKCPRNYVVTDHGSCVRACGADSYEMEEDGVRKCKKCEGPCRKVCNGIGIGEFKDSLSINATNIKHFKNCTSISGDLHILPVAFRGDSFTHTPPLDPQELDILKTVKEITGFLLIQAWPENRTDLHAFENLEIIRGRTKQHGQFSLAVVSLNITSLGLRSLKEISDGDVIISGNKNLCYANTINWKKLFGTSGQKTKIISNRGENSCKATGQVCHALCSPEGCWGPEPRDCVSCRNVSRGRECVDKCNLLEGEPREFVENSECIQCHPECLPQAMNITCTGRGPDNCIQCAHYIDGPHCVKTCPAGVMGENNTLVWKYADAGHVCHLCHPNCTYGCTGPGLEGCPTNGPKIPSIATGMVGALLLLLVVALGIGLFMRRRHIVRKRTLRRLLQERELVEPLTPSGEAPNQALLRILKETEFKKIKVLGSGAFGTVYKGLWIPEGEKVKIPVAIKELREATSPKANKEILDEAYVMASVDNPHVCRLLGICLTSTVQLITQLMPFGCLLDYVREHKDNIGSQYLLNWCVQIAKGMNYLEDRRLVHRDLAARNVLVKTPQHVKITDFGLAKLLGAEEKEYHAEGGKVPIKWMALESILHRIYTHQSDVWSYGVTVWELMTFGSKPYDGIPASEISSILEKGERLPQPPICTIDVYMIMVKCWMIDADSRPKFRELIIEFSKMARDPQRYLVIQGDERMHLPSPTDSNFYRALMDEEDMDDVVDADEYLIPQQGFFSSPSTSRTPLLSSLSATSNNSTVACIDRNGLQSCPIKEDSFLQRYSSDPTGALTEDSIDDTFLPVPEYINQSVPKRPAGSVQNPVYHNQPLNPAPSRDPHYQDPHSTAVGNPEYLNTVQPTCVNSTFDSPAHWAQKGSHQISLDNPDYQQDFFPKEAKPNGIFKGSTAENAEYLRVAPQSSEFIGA

As to `CCN(CC)CCON=C1/C(=C/c2cc(OC)c(OC)c(OC)c2Br)CC(C)C/C1=C\c1cc(OC)c(OC)c(OC)c1Br` (centres undefined), the half-inhibitory concentration (IC50) (usually the midpoint of a concentration-inhibition curve) in [1] was 4.1 µM; in data set [2], 4.1 µM; in data set [4], 4.5 µM; in data set [5] it was 4.7 µM; in data set [7] it was 4.9 µM; in data set [8] it was 4.2 µM. The same compound yielded an IC50 in data set [9] of 4.1 µM. The result in data set [3] was inactive. Moreover, the viability at 96 h in data set [6] came out at 94%.

As to `COc1cc(/C=C2\CN(C)C/C(=C\c3cc(OC)c(OC)c(OC)c3Br)C2=NO)c(Br)c(OC)c1OC`, the 50% inhibitory concentration (IC50) in [1] is 0.06 µM; in data set [2] it was 0.06 µM; in data set [4] it was 0.07 µM; in [5], 0.09 µM; in [11], 1.6 µM; in [14], 0.07 µM. The IC50 in [7] came out at 0.07 µM; in data set [8], 0.09 µM; in data set [9] it was 0.08 µM. Moreover, the result in data set [10], in [3] and in data set [15] was inactive. Further, the viability at 96 h in data set [6] amounted to 96%. The Activity entry in data set [12] is listed as “Non-Toxic”. Besides, the inhibition entry in [13] was “inactive”.

Regarding `COc1cc(/C=C2\CCc3c(O)cccc3\C2=N\O)c(Br)c(OC)c1OC`, the 50% inhibitory concentration (IC50) turned out to be 1.4 µM in [1]; 2 µM in data set [2]; 1.1 µM in data set [4]; 2.3 µM in data set [5]; 1.7 µM in [11]; 4.6 µM in data set [14]. Further, the IC50 in data set [7] was 1.2 µM; in data set [8], 1.5 µM; in [9] it was 1.3 µM. Moreover, in data set [10], the result was Active. In addition, the outcome in data set [3] and in [15] was inactive. The viability at 96 h in data set [6] was 90%. Besides, the Activity result in [12] is on record as “Non-Toxic”. The inhibition entry in data set [13] is “Active”.

In the case of `COc1ccc(/C=C2\CCc3ccc([N+](=O)[O-])cc3\C2=N\O)c(Cl)c1OC`, the half-inhibitory concentration (IC50) was 0.07 µM in data set [1]; 0.08 µM in data set [2]; 0.09 µM in data set [4]; 0.02 µM in [5]; 0.9 µM in data set [11]; 2 µM in data set [14]. Also, the half-inhibitory concentration (IC50) was determined as 0.09 µM in data set [7], 0.09 µM in [8] and 0.08 µM in data set [9]. The result in [10] was Active. Further, the result in [3] and in data set [15] was inactive. In addition, the viability at 96 h in [6] was 93%. Moreover, in [12], the Activity result is listed as “Non-Toxic”. In data set [13], the inhibition entry is “Active”.

On to `COc1cc2c(cc1OC)C(=N/O)/C(=C/c1cc(OC)c(OC)c(OC)c1Br)CC2`, for which the IC50 in data set [1] came to 2.2 µM; in [2] it was 1.9 µM; in [4] it was 2.2 µM; in data set [5] it was 2.2 µM; in [11], 6.3 µM; in data set [14] it was 8.4 µM. Further, the figures for the half-maximal inhibitory concentration (IC50) in data set [7], in [8] and in [9] were 2.9 µM, 2.1 µM and 2.6 µM, respectively. Also, the result in data set [10] was Active. For the same compound, the outcome in [3] and in data set [15] was inactive. Also, in data set [6], the viability at 96 h came out at 92%. Moreover, the Activity result in data set [12] is reported as “Non-Toxic”. Also, the inhibition result in data set [13] is “Active”.

On to `CCN(CC)CCON=C1/C(=C/c2cc(OC)c(OC)c(OC)c2Br)CN(C)C/C1=C\c1cc(OC)c(OC)c(OC)c1Br`, for which the IC50 came to 0.09 µM in data set [1]; 0.07 µM in data set [2]; 0.09 µM in [4]; 0.08 µM in data set [5]; 3.2 µM in data set [11]; 0.1 µM in [14]. Besides, the half-maximal inhibitory concentration (IC50) in data set [7] was 0.08 µM; in data set [8], 0.09 µM; in data set [9], 0.07 µM. In addition, the outcome in data set [10], in [3] and in data set [15] was inactive. In addition, the viability at 96 h in data set [6] is 95%. In addition, in data set [12], the Activity result is listed as “Non-Toxic”. In addition, in [13], the inhibition result was “inactive”.

As to `COc1ccc(OC)c2c1CCC(=C\c1cc(OC)c(OC)c(OC)c1Br)/C2=N\O`, the IC50 in data set [1] is 0.5 µM; in [2] it was 0.4 µM; in data set [4], 0.6 µM; in data set [5], 0.7 µM; in [11] it was 1.8 µM; in data set [14] it was 4.2 µM. Also, the IC50 in data set [7] was 0.6 µM; in data set [8] it was 0.7 µM; in data set [9], 0.6 µM. The result in [10] was Active. Also, the result in data set [3] and in [15] was inactive. For the same compound, the viability at 96 h in data set [6] amounted to 89%. In addition, the Activity result in data set [12] is “Non-Toxic”. Moreover, the inhibition entry in data set [13] was “Active”.

With `COc1ccc2c(c1)CC/C(=C\c1cccc(OC)c1Cl)C2=O`, the half-maximal inhibitory concentration (IC50) in data set [1] amounted to 5.1 µM; in data set [2], 4.6 µM; in [4] it was 4.4 µM; in [5], 4.7 µM; in [7] it was 4 µM; in data set [8] it was 4.5 µM. The compound also came in with an IC50 in [9] of 4.7 µM. Further, the viability at 96 h in [6] came to 95%.

On to `COc1ccc(/C=C2\CCc3ccc(Cl)cc3C2=O)c(Cl)c1OC`, for which the 50% inhibitory concentration (IC50) is 9.1 µM in data set [1]; 10.7 µM in [2]; 10.9 µM in data set [4]; 10.8 µM in data set [5]; 9.5 µM in [7]; 10.5 µM in data set [8]. Moreover, the IC50 in data set [9] turned out to be 10.6 µM. For the same compound, the viability at 96 h in data set [6] was 94%.

On to `COc1cc(/C=C2\CCc3ccc([N+](=O)[O-])cc3\C2=N\O)c(Br)c(OC)c1OC`, for which the IC50 in data set [1] is 0.09 µM; in [2], 0.02 µM; in data set [4], 0.03 µM; in [5] it was 0.02 µM; in [11], 1 µM; in [14] it was 1.9 µM. In addition, the half-inhibitory concentration (IC50) was determined as 0.02 µM in data set [7], 0.02 µM in data set [8] and 0.04 µM in [9]. Besides, the result in data set [10] was Active. For the same compound, the result in [3] and in [15] was inactive. In addition, the viability at 96 h in data set [6] was determined as 96%. Also, the Activity result in [12] is “Non-Toxic”. For the same compound, the inhibition result in [13] is “Active”.

As for `COc1cc(/C=C2\CC(C)c3ccccc3\C2=N\O)c(Br)c(OC)c1OC` (centres undefined), the IC50 in data set [1] stood at 2.5 µM; in [2], 2.2 µM; in data set [4], 2.1 µM; in data set [5], 1.9 µM; in [11], 2.4 µM; in data set [14], 3.2 µM. Further, the IC50 is 2.6 µM in data set [7], 2 µM in data set [8] and 1.9 µM in data set [9]. The outcome in data set [10] was Active. Besides, the result in [3] and in [15] was inactive. The viability at 96 h in data set [6] was 98%. For the same compound, the Activity result in [12] is on record as “Non-Toxic”. The inhibition entry in data set [13] is “Active”.

Turning to `COc1ccc2c(c1)CCC(=C\c1cc(OC)c(OC)c(OC)c1Br)/C2=N\O`, the IC50 in data set [1] is 0.8 µM; in [2], 1.2 µM; in data set [4] it was 1.7 µM; in [5], 1.4 µM; in data set [11], 1.9 µM; in data set [14], 2.1 µM. Besides, the half-maximal inhibitory concentration (IC50) turned out to be 1.2 µM in data set [7], 1 µM in [8] and 1.1 µM in [9]. Besides, the outcome in data set [10] was Active. Further, the result in data set [3] and in data set [15] was inactive. Further, in data set [6], the viability at 96 h amounted to 92%. Also, in data set [12], the Activity entry is reported as “Non-Toxic”. Besides, the inhibition entry in data set [13] is “Active”.

On to `COc1cccc(/C=C2\CCc3c(OC)cccc3C2=O)c1Cl`, for which the IC50 amounted to 9 µM in [1]; 6.4 µM in [2]; 8.4 µM in data set [4]; 8.4 µM in data set [5]; 8.7 µM in [7]; 8.5 µM in data set [8]. Moreover, in [9], inhibition was half-maximal at 9 µM (IC50). In addition, the viability at 96 h in [6] is 93%.

For the compound `COc1cccc(/C=C2\CCc3ccc(F)cc3C2=O)c1Cl`, the concentration for half-maximal inhibition (IC50) is 12.9 µM in data set [1]; 11.1 µM in data set [2]; 12.9 µM in data set [4]; 12.6 µM in [5]; 15.2 µM in data set [7]; 12.4 µM in data set [8]. The compound further came in with an IC50 in data set [9] of 15.2 µM. Besides, the viability at 96 h in [6] worked out at 90%.

In the case of `COc1ccc(/C=C2\CCc3ccc([N+](=O)[O-])cc3C2=O)c(Cl)c1OC`, the half-maximal inhibitory concentration (IC50) in data set [1] came to 2.3 µM; in [2], 1.9 µM; in data set [4], 1.9 µM; in [5] it was 1.6 µM; in data set [7], 1.7 µM; in [8] it was 1.9 µM. The IC50 in data set [9] came to 1.8 µM. Moreover, in data set [6], the viability at 96 h worked out at 90%.
